Here are results for one compound from article PMC6429262, “Design and Synthesis of Novel Anti-Proliferative Emodin Derivatives and Studies on their Cell Cycle Arrest, Apoptosis Pathway and Migration” (Molecules, 2019).

Common to all, as to type: cell-based, human
The test system of one test is Bcl-2. The test can be described thus: Western blot, Bcl-2. As to conditions: 48 h. The method, then: Total cell lysates from cultured HepG2 cells treated with different concentrations of compound 7a for 48 h were obtained by lysing the cells in ice-cold RIPA buffer (1 PBS, 1% NP-40, 0.5% sodium deoxycholate and 0.1% SDS) containing […] PMSF, 5 mg/mL aprotinin, 5 mg/mL leupeptin, 5 mg/mL pepstatin and […] NaF. After centrifugation at 12,000 rpm for 10 min, the protein in the supernatant was quantified by the Bradford method (BIO-RAD, Hercules, CA, USA) using a Multimode Varioscan instrument (Thermo Fischer Scientific, Waltham, MA, USA). Twenty micrograms of protein per lane was applied in 12% SDS polyacrylamide gel. After electrophoresis, the protein was transferred to a polyvinylidine difluoride membrane (Amersham Biosciences, Marlborough, MA, USA). The membrane was blocked at room temperature for 2 h in TBST containing 5% blocking powder (Santa Cruz, Dallas, TX, USA). The membrane was washed with TBST for 5 min, and the primary antibody was added and incubated at 4 °C overnight (O/N). Bax (5023, CST, Danvers, MA, USA), Bcl-2 (15071, CST), cytochrome c (4280, CST), procaspase-9 (AB138412, Abcam, Cambridge, MA, USA), procaspase-3 (AB32150, Abcam), caspase-3 (66470-2-lg, Proteintech Group, Rosemont, IL, USA) and GAPDH (AB8245, Abcam) antibodies were employed. After three TBST washes, the membrane was incubated with the corresponding horseradish peroxidase-labeled secondary antibody (1:5000) (Santa Cruz) at room temperature for 2 h. Membranes were washed with TBST for 15 min five times and the protein blots were visualized with chemiluminescence reagent (Thermo Fischer Scientific Ltd.). The X-ray films were developed with a developer and fixed with fixer solution. The grey levels were analyzed using ImageQuant LAS 4000 system (GE, Marlborough, MA, USA).
A general note: A western blot detects proteins with antibodies after separation by electrophoresis.

The subject of the next test is MCF-7 cells. Kind of test: CellTiter-Glo Luminescent Cell Viability Assay, MCF-7. As to conditions: for IC50: MCF-7 cells, 48 h, mean of three independent experiments. In general terms: Cellular ATP, detected with luciferase, serves as a proxy for viable cell number.
Test [1] has as its system HepG2 cells. Kind of test: CellTiter-Glo Luminescent Cell Viability Assay, HepG2. As to conditions: for IC50: 48 h, mean of three independent experiments.
Test [2] deals with HepG2 cells. The test can be described thus: Cell cycle analysis, PI staining flow cytometry. On the set-up: Dip G1 (G1 phase cells) / Dip S (S phase cell population): dose or concentration left out as unconfirmed. As to conditions: for Cell cycle distribution, G0/G1 / Cell cycle distribution, G2/M / Cell cycle distribution, S: mean ± SD of three experiments. The method, then:
To further examine how compound 7a suppressed the growth of HepG2 cells, the effect of compound 7a on cell cycle distribution with different concentrations was investigated by flow cytometric analysis following staining the DNA with propidium iodide (PI).
The HepG2 cells were treated with indicated concentrations of compound 7a. After incubation for 48 h, cells were washed twice with ice-cold PBS, fixed and permeabilized with ice cold 70% ethanol at −20 °C overnight. The cells were treated with 100 μg/mL RNase A at 37 °C for 30min, then washed with ice-cold PBS and finally stained with 1mg/mL PI in the dark at 4 °C for 30 min. The cellular DNA content for the cell cycle distribution analysis was performed with the system software (CellQuest; BD Biosciences), plotting at least 30,000 events per sample. The percentage of cells in the G1, S and G2 phases of the cell cycle were determined using the ModFit LT version 5.0 software package (Verity Software, Topsham, ME, USA).

Setting [3] is: HepG2, 48 h, representative plot.

`Cc1cc(O)c2c(c1)C(=O)c1cc(OCCCOC(=O)[C@@H](C)N)cc(O)c1C2=O.O=C(O)C(F)(F)F` [Compound 7a, (R)-1-(3-(4,5-Dihydroxy-7-methyl-9,10-dioxo-9,10-dihydroanthracen-2-yloxy)propoxy)-1-oxopropan-2-aminium 2,2,2-trifluoroacetate]: the “Relative expression level, Bcl-2” value in the test on Bcl-2 (HepG2, 2.5 μM) was 0.685 ± 0.025; in the test with Bcl-2 (HepG2, 5 μM), 0.312 ± 0.012; in the test on Bcl-2 (HepG2, 10 μM), 0.268 ± 0.022. In addition, the half-maximal inhibitory concentration (IC50) in the test with MCF-7 cells (Homo sapiens, MCF7, 48 h) is 5.92 ± 0.36 µM; in the test with MCF-7 cells it was 6.47 ± 0.18 µM; in the test on HepG2 cells [1] (HepG2 cells), 6.47 ± 0.21 µM; in the test with HepG2 cells [1] (Homo sapiens, HepG2, 48 h, HepG2 cells), 4.95 ± 0.14 µM. Further, the “Selectivity Index MCF-7” value in the test on MCF-7 cells (IC50 on normal cells (L02)/IC50 on cancer cells (MCF-7)) turned out to be 2.36. Further, the “enhancement of anti-proliferative activity compared to emodin” value with HepG2 cells [1] (HepG2 cells, IC50 ratio to parent compound emodin) stood at 8.8 fold. For the same compound, in the test with HepG2 cells [1] (IC50 on normal cells (L02)/IC50 on cancer cells (HepG2)), the “Selectivity Index HepG2” value is listed as 2.82. Further, the “Cell cycle distribution, G0/G1” value stood at 44.18 ± 1.79% in the test with HepG2 cells [2] (HepG2, 0.25 μM); 56.49 ± 1.40% in the test on HepG2 cells [2] (HepG2, 0.5 μM); 63.96 ± 2.42% with HepG2 cells [2] (HepG2, 1 μM). Further, the “Cell cycle distribution, G2/M” value in the test on HepG2 cells [2] (HepG2, 0.25 μM) came to 17.55 ± 0.90%; with HepG2 cells [2] (HepG2, 0.5 μM), 24.81 ± 1.79%; in the test on HepG2 cells [2] (HepG2, 1 μM), 22.22 ±1.16%. Also, the “Cell cycle distribution, S” value in the test with HepG2 cells [2] (HepG2, 0.25 μM) is recorded as 38.25 ± 1.65%; with HepG2 cells [2] (HepG2, 0.5 μM), 19.21 ± 1.33%; with HepG2 cells [2] (HepG2, 1 μM), 14.52 ± 1.43%. The “Dip G1 (G1 phase cells)” value in the test on HepG2 cells [2] (setting [3]) amounted to 63.37%. In addition, in the test with HepG2 cells [2] (setting [3]), the “Dip S (S phase cell population)” value turned out to be 14.60%.

In general, IC50 refers to the concentration that gives 50% inhibition.
